Ends that are not written are not given here. Peptide text beside a SMILES is read from it. * marks the point of attachment. For = O=C*
How the values were obtained:
MC/9 cells = assay: Viability of MCs after stimulation with synthetic PSMs (LDH release); conditions: synthetic peptides
Description: (a) % LDH released from MC/9 cells stimulated by medium alone (Ctrl) and indicated concentrations (μg ml^−1) of PSMs for 15 or 60 minutes. […] Data represent means±s.d. of triplicate cultures. Data are representative of three independent experiments.
Because δ-toxin is highly related to PSMα2 and PSMα3, the viability of MCs after stimulation with synthetic PSMα2, PSMα3, or δ-toxin, was assessed.

[1] = tested on: MCs (FSMCs, BMCMCs, MC/9 cells); format: cell-based, mouse; conditions: in vitro; for effect on MC degranulation induced by δ-toxin: pre-treatment before δ-toxin stimulation
Description: Preparations of BMCMCs and fetal skin-derived mast cells (FSMCs) were previously described in Yamada, et al., J Invest Dermatol 121, 1425-1432 (2003). The purity of MCs was confirmed by surface expression of CD45 and CD117 (eBioscience).
Degranulation of MCs was assessed by β-hexosaminidase assay as previously described in Yamada, et al., J Invest Dermatol 121, 1425-1432, (2003). Briefly, MCs (2×10^6 m^−1) were preloaded with or without anti-DNP IgE (0.3 μg ml^−1) in RPMI with IL-3 for 15 hours. The cells were resuspended in Tyrode's buffer (Sigma) at 2×10^4 cells per 100 μl for FSMCs or 1×10^5 cells per 100 μl for BMCMCs and MC/9 cells, aliquoted in triplicate into a 96-well U-bottom plate and incubated with EGTA (1 mM, Sigma), LY294002 (100 μM, Sigma) and WRW4 (Trp-Arg-Trp-Trp-Trp-Trp-CONH2 (SEQ ID NO: […], American peptide) and Cyclosporine H (10 μM, Alexis Biochemicals) for 30 min, and then stimulated with DNP-HSA (30 ng ml^−1) TNP-HSA (30 nM) for 30 min, followed by exposure to Ionomycin (1 μM, Sigma) δ-toxin (indicated concentrations), PSMαs (indicated concentrations) or FPR2 ligands for 15 min. Results of various stimuli are given as a relative percentage, where freeze and thaw of total cell culture represents 100%.

FSMCs = format: cell-based, mouse
Description: In brief, FSMCs (2×10^6 m^−1) were preloaded with or without anti-DNP-IgE (0.3 g ml^−1) in RPMI with IL-3 for 15 hours. Cells were washed and loaded with Fluo-4AM (5 μM, Life Technologies) for 30 minutes. Cells were washed again and further incubated in Tyrode's buffer with or without EGTA (1 mM) for 30 minutes. DNP-HSA (30 ng ml^−1), Ionomycin (1 μM) or δ-toxin (30 μg ml^−1) were used to induce calcium flux in these cells.

MC degranulation in vivo = assay: Passive cutaneous anaphylaxis (PCA) assay, Evans blue leakage in ear skin; conditions: mice pretreated with WRW4, then S. aureus culture supernatant intradermally
Description: To assess whether δ-toxin induces MC degranulation in vivo, synthetic δ-toxin was injected into the skin of mouse ears and MC degranulation was monitored by the vascular leakage of Evan's blue dye into the extravascular space using the passive cutaneous anaphylaxis (PCA) assay.
Four to six weeks later, the mice were subjected to experimental PCA or epicutaneous S. aureus sensitization. […] PCA assay was performed as described, with minor modifications. […] After inoculation, 0.1 ml of 5 mg ml −1 Evans blue dye was injected intravenously. Extravasation of Evans blue dye was monitored for 30 minutes, and 4 mm of punched-out biopsies were incubated at 63° C. overnight in 200 μl formamide. Quantitative analysis of extracts was determined by measuring the absorbance at 600 nm.

[2] = tested on: primary mouse macrophages and keratinocytes; assay: Cell toxicity by LDH assay in primary mouse macrophages and keratinocytes
Description: Cell toxicity of δ-toxin. BMCMCs, BMMφ (bone marrow derived macrophages), bone marrow neutrophils and primary keratinocytes isolated from mice were stimulated with PSMα (10 μg ml−1) or δ-toxin (10 or 100 μg ml−1) for indicated times. Cell toxicity was measured by LDH assay. Data represent means±s.d. of triplicate cultures. NS; not significant, ***P<0.001, one-way ANOVA with Tukey's post-hoc test for multiple comparisons. Data are representative of two independent experiments.

How did the “cell viability / cell death in MCs” value (MC/9 cells) turn out when CC[C@H](C)[C@H](NC(=O)[C@H](Cc1c[nH]c2ccccc12)NC(=O)[C@H](CCCCN)NC(=O)[C@@H](NC(=O)[C@H](CC(C)C)NC(=O)[C@H](CC(=O)O)NC(=O)CNC(=O)[C@@H](NC(=O)[C@@H](NC(=O)[C@H](CO)NC(=O)[C@@H](NC(=O)[C@@H](NC(=O)[C@H](CC(=O)O)NC(=O)[C@H](CCC(N)=O)NC(=O)[C@H](C)NC(=O)[C@@H](N)CCSC)[C@@H](C)CC)[C@@H](C)CC)[C@@H](C)O)[C@@H](C)CC)C(C)C)C(=O)N[C@H](C(=O)N[C@@H](CC(=O)O)C(=O)N[C@H](C(=O)N[C@H](C(=O)N[C@@H](CC(N)=O)C(=O)N[C@@H](CCCCN)C(=O)N[C@@H](Cc1ccccc1)C(=O)N[C@H](C(=O)N[C@@H](CCCCN)C(=O)N[C@@H](CCCCN)C(=O)O)[C@@H](C)O)C(C)C)[C@@H](C)O)[C@@H](C)CC [δ-toxin] was run?
Its value is “did not induce detectable cell death”.

How did the “induction of MC degranulation” value [1] turn out when LESIFRSLLFRVM [MMK1, human FPR2 ligand] was run?
The value was “did not induce mouse MC degranulation”.

Which results are given for O=C(O)CN(CCOCCOCCN(CC(=O)O)CC(=O)O)CC(=O)O [EGTA, ethylene glycol tetraacetic acid]?
effect on MC degranulation induced by δ-toxin [1]: blocked MC degranulation; effect on δ-toxin-triggered Ca2+ influx (FSMCs; EGTA 1 mM): abrogated

With CC[C@H](C)[C@H](NC(=O)CNC(=O)[C@H](CCSC)NC=O)C(=O)N[C@H](C(=O)N[C@@H](C)C(=O)NCC(=O)N[C@H](C(=O)N[C@H](C(=O)N[C@@H](CCCCN)C(=O)N[C@@H](Cc1ccccc1)C(=O)N[C@H](C(=O)N[C@@H](CCCCN)C(=O)NCC(=O)N[C@@H](CC(C)C)C(=O)N[C@H](C(=O)N[C@@H](CCC(=O)O)C(=O)N[C@@H](CCCCN)C(=O)N[C@@H](Cc1ccccc1)C(=O)N[C@H](C(=O)NCC(=O)N[C@@H](CCCCN)C(=O)O)[C@@H](C)O)[C@@H](C)CC)[C@@H](C)CC)[C@@H](C)CC)[C@@H](C)CC)[C@@H](C)CC [PSMα3] as the compound, how does the “cell viability / cell death in MCs” value (MC/9 cells) read?
Its value is “induced robust loss of cell viability”.

With “Trp-Arg-Trp-Trp-Trp-Trp-CONH2 (WRWWWW-NH2) [WRW4]” as the compound, how does the “effect on MC degranulation induced by δ-toxin” value [1] read?
The value was “inhibited MC degranulation”.

What about the “effect on MC degranulation induced by δ-toxin in vivo” value (MC degranulation in vivo) of the same compound?
The value was “inhibited MC degranulation”.

How did the “induction of MC degranulation” value [1] turn out when CCCCC[C@H](O)/C=C/C=C\C=C\C=C\[C@@H](O)[C@@H](O)CCCC(=O)O [Lipoxin A4] was run?
The value was “did not induce mouse MC degranulation”.

With C[C@H](CCC(=O)O)C[C@H](C)C[C@H](C)C(=O)/C=C(\O)[C@H](C)C[C@H](C)C/C=C/[C@@H](C)[C@@H](O)[C@@H](C)[C@@H](O)C[C@@H]1CC[C@@](C)([C@H]2CC[C@@](C)([C@@H](C)O)O2)O1 [ionomycin] as the compound, how does the “induction of Ca2+ influx” value (FSMCs) read?
The value was “induced rapid Ca 2+ influx”.

How did the “effect on MC degranulation induced by δ-toxin” value [1] turn out when pertussis toxin was run?
The value was “partially reduced”.

With CC[C@H](C)[C@H](NC(=O)CNC(=O)[C@H](CCSC)NC=O)C(=O)N[C@H](C(=O)N[C@@H](C)C(=O)NCC(=O)N[C@H](C(=O)N[C@H](C(=O)N[C@@H](CCCCN)C(=O)N[C@H](C(=O)N[C@H](C(=O)N[C@@H](CCCCN)C(=O)N[C@@H](CO)C(=O)N[C@@H](CC(C)C)C(=O)N[C@H](C(=O)N[C@@H](CCC(=O)O)C(=O)N[C@@H](CCC(N)=O)C(=O)N[C@@H](Cc1ccccc1)C(=O)N[C@H](C(=O)NCC(=O)N[C@@H](CCCCN)C(=O)O)[C@@H](C)O)[C@@H](C)CC)[C@@H](C)CC)C(C)C)[C@@H](C)CC)[C@@H](C)CC)[C@@H](C)CC [PSMα2] (For-MGIIAGIIKVIKSLIEQFTGK-OH) as the compound, how does the cell death [2] read?
The cell death was “triggered robust cell death”.

And the “cell viability / cell death in MCs” value (MC/9 cells)?
The value was “induced robust loss of cell viability”.

— patent US12065485B2, “Treatment of staphylococcal disorders” (priority 2013, dated 2024)
